# Key:
# [1] = Half-life period was determined at 20 degree Celsius at UV lambdamax nm of 254 (15000), 341 (7800); type: ADME
# [2] = target: GABA-A receptor; anion channel; assay: Inhibition of [3H]GABA binding to Gamma-aminobutyric acid (GABA-A) receptor of rat brain homogenates
# [3] = Half-life period was determined at 20 degree Celsius at UV lambdamax nm of 255 (14000), 339 (7500); type: ADME
# [4] = target: Gamma-aminobutyric acid receptor subunit gamma-1 (Rattus norvegicus) (UniProt P23574); assay: Inhibition of [3H]GABA binding to Gamma-aminobutyric acid (GABA-A) receptor of rat brain homogenates at 5*10e-4 M
# Sequence of Gamma-aminobutyric acid receptor subunit gamma-1 (Rattus norvegicus) (P23574 whole entry): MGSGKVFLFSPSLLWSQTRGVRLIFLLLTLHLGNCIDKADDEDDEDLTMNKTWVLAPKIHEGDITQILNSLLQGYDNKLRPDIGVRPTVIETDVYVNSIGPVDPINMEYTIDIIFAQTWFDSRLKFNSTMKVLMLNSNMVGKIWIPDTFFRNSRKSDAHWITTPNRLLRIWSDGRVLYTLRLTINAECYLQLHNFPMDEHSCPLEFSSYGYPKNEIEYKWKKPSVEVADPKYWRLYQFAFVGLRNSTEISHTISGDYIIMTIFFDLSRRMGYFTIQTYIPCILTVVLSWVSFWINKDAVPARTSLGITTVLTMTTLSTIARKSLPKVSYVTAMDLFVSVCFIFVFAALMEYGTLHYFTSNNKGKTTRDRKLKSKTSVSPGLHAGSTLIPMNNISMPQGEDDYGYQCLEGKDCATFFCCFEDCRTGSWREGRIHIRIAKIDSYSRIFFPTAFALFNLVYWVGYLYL
# [5] = target: T1, GABA-A receptor; anion channel (Rattus norvegicus) (UniProt O09028+P15431+P18506+P18508+P19969+P20236+P23574+P23576+P28471+P28473+P30191+P62813+P63079+P63138+Q91ZM7+Q9ES14); assay: Inhibition of [3H]GABA binding to Gamma-aminobutyric acid (GABA-A) receptor isolated from rat brain homogenates at 5*10e-4 M
# [6] = Half-life period was determined at 20 degree Celsius at UV lambdamax nm of 348 (44000); Stable; type: ADME
# [7] = Half-life period was determined at 20 degree Celsius at UV lambdamax nm of 313 (23000); Stable; type: ADME
# [8] = Half-life period was determined at 20 degree Celsius at UV lambdamax nm of 310 (16600); type: ADME
# [9] = Half-life period was determined at 20 degree Centigrade at UV lambdamax nm of 313 (12000); type: ADME
# [10] = target: Gamma-aminobutyric acid receptor subunit gamma-1 (Rattus norvegicus, UniProt P23574); assay: Inhibition of [3H]-GABA binding to Gamma-aminobutyric acid (GABA-A) receptor of rat brain homogenates (Unstable)
# Sequence of Gamma-aminobutyric acid receptor subunit gamma-1 (P23574 whole entry): as above
# [11] = Half-life period was determined at 20 degree Centigrade at UV lambdamax nm of 299 (8000); type: ADME
# [12] = target: T1, GABA-A receptor; anion channel (Rattus norvegicus); assay: Inhibition of [3H]-GABA binding to Gamma-aminobutyric acid (GABA-A) receptor of rat brain homogenates at 10e-5 M
# [13] = Half-life period was determined at 20 degree Celsius at UV lambdamax nm of 256 (16000), 349 (9000); type: ADME
# [14] = Half-life period was determined at 20 degree Celsius at UV lambdamax nm of 257 (14000), 350 (7900)stable; type: ADME
# [15] = Half-life period was determined at 20 degree Celsius at UV lambdamax nm of 258 (9800); Stable; type: ADME
# [16] = Half-life period was determined at 20 degree Celsius at UV lambdamax nm of 258 (8500); type: ADME
# [17] = test system: GABA-A receptor; anion channel; assay: Inhibition of [3H]GABA binding to Gamma-aminobutyric acid (GABA-A) receptor of rat brain homogenates (unstable)
# [18] = Half-life period was determined at 20 degree Celsius at UV lambdamax nm of 345 (23000); Stable; type: ADME
# [19] = Half-life period was determined at 20 degree Celsius at UV lambdamax nm of 304(7800); unstable; type: ADME
# [20] = Half-life period was determined at 20 degree Celsius at UV lambdamax nm of 313 (22000); type: ADME
# [21] = Half-life period was determined at 20 degree Celsius at UV lambdamax nm of 314 (24000); stable; type: ADME
# [22] = Half-life period was determined at 20 degree Centigrade at UV lambdamax nm of 306 (24000); type: ADME
# [23] = Half-life period was determined at 20 degree Celsius at UV lambdamax nm of 306 (24000); Stable; type: ADME
# [24] = Half-life period was determined at 20 degree Celsius at UV lambdamax nm of 346 (44000); Stable; type: ADME
# [25] = Half-life period was determined at 20 degree Centigrade at UV lambdamax nm of 328; Unstable; type: ADME
# [26] = Half-life period was determined at 20 degree Celsius at UV lambdamax nm of 268 (16000); type: ADME
# [27] = Half-life period was determined at 20 degree Celsius at UV lambdamax nm of 266 (16000); Stable; type: ADME
# [28] = Half-life period was determined at 20 degree Celsius at UV lambdamax nm of 328 (12000); type: ADME
# [29] = Half-life period was determined at 20 degree Centigrade at UV lambdamax nm of 328 (9000); type: ADME
# [30] = Half-life period was determined at 20 degree Celsius at UV lambdamax nm of 321 (6500); type: ADME
# [31] = Half-life period was determined at 20 degree Celsius at UV lambdamax nm of 323 (23000); Stable; type: ADME
# [32] = Half-life period was determined at 20 degree Celsius at UV lambdamax nm of 316 (22000); type: ADME
# [33] = Half-life period was determined at 20 degree Celsius at UV lambdamax nm of 319 (22000); type: ADME
# [34] = Half-life period was determined at 20 degree Celsius at UV lambdamax nm of 390 (5900); Stable; type: ADME
# [35] = Half-life period was determined at 20 degree Celsius at UV lambdamax nm of 260 (9600), 350 (5000); Stable; type: ADME
compound,measurement,setting,value
N#[N+]c1cccc2cccc(S(=O)(=O)[O-])c12,half-life,[1],22 h
same,IC50,[2],10 µM
same,half-life,[3],16 h
Nc1ncc(CC(=O)O)s1,inhibition,[4],< 50%
[N-]=[N+]=C1C=CC(=O)C=C1,inhibition,[5],15%
same,T1/2,[6],Stable
same,T1/2,[7],Stable
N#[N+]c1nccn1CC(=O)[O-],half-life,[8],12 h
same,half-life,[9],0.367 h
same,IC50,[10],Unstable
same,half-life,[11],3 h
Nc1ncc[nH]1,inhibition,[5],0%
Nc1nc(CC(=O)O)c[nH]1,inhibition,[12],30%
N#[N+]c1ccc2cccc(S(=O)(=O)[O-])c2c1,half-life,[13],0.75 h
same,IC50,[2],< 10 µM
same,T1/2,[14],Stable
N#[N+]c1cccc(C(=O)[O-])c1,inhibition,[5],30%
same,T1/2,[15],Stable
same,half-life,[16],1.33 h
N#[N+]c1cccc(S(=O)(=O)[O-])c1,IC50,[2],5 µM
N#[N+]c1cc[n+]([O-])cc1,IC50,[17],Unstable
same,T1/2,[18],Stable
same,T1/2,[19],Unstable
N#[N+]C1N=CC[N-]1 (stereo not given),half-life,[20],8 h
same,T1/2,[21],Stable
same,IC50,[2],500 µM
same,half-life,[22],48 h
[N-]=[N+]=C1C=CC(=O)C(S(=O)(=O)O)=C1,inhibition,[5],15%
same,T1/2,[23],Stable
same,T1/2,[24],Stable
N#[N+]c1ncc(CC(=O)[O-])s1,T1/2,[25],Unstable
same,IC50,[17],Unstable
Nc1nc(CC(N)C(=O)O)c[nH]1 (stereo not given),inhibition,[5],< 50%
NCc1ccc[n+]([O-])c1,inhibition,[5],20%
N#[N+]c1ccc(S(=O)(=O)[O-])cc1,half-life,[26],6 h
same,inhibition,[4],< 50%
same,T1/2,[27],Stable
Nc1nc(CC(=O)O)cs1,inhibition,[12],25%
N#[N+]c1nc(CC(=O)[O-])cs1,half-life,[28],48 h
same,half-life,[29],0.417 h
same,IC50,[17],Unstable
same,half-life,[30],43 h
N#[N+]c1nc(CC(=O)[O-])c[nH]1,T1/2,[31],Stable
same,IC50,[2],70 µM
same,half-life,[32],60 h
same,half-life,[33],11 h
Nc1nccn1CC(=O)O,inhibition,[5],20%
[N-]=[N+]=C1C=C(S(=O)(=O)O)C=CC1=O,inhibition,[5],15%
same,T1/2,[34],Stable
same,T1/2,[35],Stable

# Source: ChEMBL document CHEMBL1123561, “Aryl diazo compounds and diazonium salts as potential irreversible probes of the gamma-aminobutyric acid receptor” (J Med Chem, 1987)
